Data as given in ChEMBL document CHEMBL1201862, “PubChem BioAssay data set” (2004).
Structures can show the parent of a compound that is named as a salt.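 Test compounds were applied to cells in 96-well plates for 48 hours at 5 doses. At the GI50, growth is halved.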 Activity calls are given as the source filed them. Cut-off read from the data, not from the text of the source: active = GI50 up to about 1.1 µM and inactive = higher.

What was measured:
Test in all cases: NCI tumour cell line growth inhibition, 48 h
[1] = tested on: HCT-15
[2] = tested on: UACC-257
[3] = tested on: A549
[4] = tested on: EKVX
[5] = tested on: SNB-75
[6] = tested on: CAKI-1
[7] = tested on: NCI-H23
[8] = tested on: RPMI-8226
[9] = tested on: U-251
[10] = tested on: HCC 2998
[11] = tested on: UACC-62
[12] = tested on: K562
[13] = tested on: BT-549
[14] = tested on: MOLT-4
[15] = tested on: NCI-H522
[16] = tested on: HCT-116
[17] = tested on: MDA-MB-231
[18] = tested on: OVCAR-5
[19] = tested on: SK-MEL-28
[20] = tested on: Malme-3M

SMILES	GI50 [1]	GI50 [2]	GI50 [3]	GI50 [4]	GI50 [5]	GI50 [6]	GI50 [7]	GI50 [8]	GI50 [9]	GI50 [10]	GI50 [11]	GI50 [12]	GI50 [13]	GI50 [14]	GI50 [15]	GI50 [16]	GI50 [17]	GI50 [18]	GI50 [19]	GI50 [20]
N#CCCN(CCCN(C(=O)Nc1ccc(NC(=O)N(CCCN(CCC#N)C(N)=O)c2ccccc2)cc1)c1ccccc1)C(N)=O	> 100 µM	> 100 µM (inactive)	> 100 µM (inactive)	> 100 µM (inactive)	67.5 µM (inactive)	> 100 µM (inactive)	> 100 µM (inactive)	> 100 µM (inactive)	> 100 µM (inactive)	> 100 µM (inactive)	> 100 µM (inactive)	> 100 µM (inactive)	> 100 µM (inactive)	> 100 µM (inactive)	> 100 µM (inactive)	> 100 µM (inactive)	> 100 µM (inactive)	> 100 µM (inactive)	> 100 µM (inactive)	> 100 µM (inactive)
O=c1c2ccccc2n2nnc3ccc(NCCCNCCNCCCNc4ccc5nnn6c7ccccc7c(=O)c4c56)c1c32	3.33 µM	8.73 µM (inactive)	0.612 µM (active)	7.03 µM (inactive)	7.89 µM (inactive)	3.86 µM (inactive)	3.83 µM (inactive)	0.716 µM (active)	0.759 µM (active)	0.308 µM (active)	14.1 µM (inactive)	0.215 µM (active)	7.36 µM (inactive)	0.0582 µM (active)	0.234 µM (active)	0.207 µM (active)	1.01 µM (active)	6.44 µM (inactive)	> 18.5 µM (inactive)	5.83 µM (inactive)
S=C(S)NCC1CCC(CNC(=S)S)CC1 (stereo not given)	23.6 µM	26.3 µM (inactive)	> 100 µM (inactive)	62.1 µM (inactive)	34.9 µM (inactive)	16.9 µM (inactive)	44.5 µM (inactive)	9.18 µM (inactive)	20.1 µM (inactive)	20.4 µM (inactive)	34.4 µM (inactive)	14.2 µM (inactive)	44.1 µM (inactive)	29.2 µM (inactive)	12.7 µM (inactive)	19.7 µM (inactive)	29.2 µM (inactive)	> 100 µM (inactive)	56.2 µM (inactive)	22.8 µM (inactive)
CN(CC1(CO)CCC1)c1cc(Cl)nc(N)n1	> 100 µM	> 100 µM (inactive)	> 100 µM (inactive)	43.3 µM (inactive)	78.5 µM (inactive)	> 100 µM (inactive)	> 100 µM (inactive)	> 100 µM (inactive)	> 100 µM (inactive)	> 100 µM (inactive)	> 100 µM (inactive)	> 100 µM (inactive)	> 100 µM (inactive)	> 100 µM (inactive)	> 100 µM (inactive)	> 100 µM (inactive)	> 100 µM (inactive)	> 100 µM (inactive)	> 100 µM (inactive)	> 100 µM (inactive)
N=C(N)NS(=O)(=O)c1ccc(/N=N/c2c(O)c(C(=O)O)cc3ccccc23)cc1	> 100 µM	> 100 µM (inactive)	> 100 µM (inactive)	> 100 µM (inactive)	> 100 µM (inactive)	> 100 µM (inactive)	> 100 µM (inactive)	> 100 µM (inactive)	> 100 µM (inactive)	> 100 µM (inactive)	> 100 µM (inactive)	> 100 µM (inactive)	> 100 µM (inactive)	> 100 µM (inactive)	> 100 µM (inactive)	> 100 µM (inactive)	47.4 µM (inactive)	> 100 µM (inactive)	> 100 µM (inactive)	> 100 µM (inactive)
C[n+]1c2ccccc2c(CNC(CCC(N)=O)C(=O)O)c2ccccc21 (stereo not given)	1.24 µM	4.31 µM (inactive)	4.38 µM (inactive)	6.75 µM (inactive)	5.22 µM (inactive)	2.36 µM (inactive)	3.9 µM (inactive)	0.39 µM (active)	3.31 µM (inactive)	4.24 µM (inactive)	2.23 µM (inactive)	0.34 µM (active)	4.59 µM (inactive)	0.998 µM (active)	1.57 µM (inactive)	0.302 µM (active)	5.36 µM (inactive)	9.1 µM (inactive)	5.96 µM (inactive)	4.44 µM (inactive)
CN/C(N)=N/N=C1/C(=O)Nc2ccccc21	> 100 µM	> 100 µM (inactive)	> 100 µM (inactive)	> 100 µM (inactive)	> 100 µM (inactive)	> 100 µM (inactive)	> 100 µM (inactive)	> 100 µM (inactive)	> 100 µM (inactive)	> 100 µM (inactive)	> 100 µM (inactive)	> 100 µM (inactive)	> 100 µM (inactive)	> 100 µM (inactive)	> 100 µM (inactive)	> 100 µM (inactive)	> 100 µM (inactive)	> 100 µM (inactive)	> 100 µM (inactive)	> 100 µM (inactive)
NNc1ccccc1Cl	> 100 µM	> 100 µM (inactive)	> 100 µM (inactive)	> 100 µM (inactive)	> 100 µM (inactive)	30.9 µM (inactive)	> 100 µM (inactive)	> 100 µM (inactive)	48.4 µM (inactive)	> 100 µM (inactive)	23.4 µM (inactive)	4.34 µM (inactive)	> 100 µM (inactive)	36.2 µM (inactive)	> 100 µM (inactive)	> 100 µM (inactive)	> 100 µM (inactive)	> 100 µM (inactive)	> 100 µM (inactive)	> 100 µM (inactive)
CCCc1c(OC)c(=O)c2c(O)cc(OC)c3c4c(OC)cc(O)c5c(=O)c(OC)c(CCC)c(c1c23)c54	2.9 µM	13.4 µM (inactive)	1.32 µM (inactive)	2.58 µM (inactive)	1.59 µM (inactive)	4.17 µM (inactive)	7.94 µM (inactive)	2.5 µM (inactive)	0.615 µM (active)	14.7 µM (inactive)	10.3 µM (inactive)	2.33 µM (inactive)	2.74 µM (inactive)	1.6 µM (inactive)	1.53 µM (inactive)	2.63 µM (inactive)	2.46 µM (inactive)	10.4 µM (inactive)	5.68 µM (inactive)	2.43 µM (inactive)
CC(=O)N(O)CCCCCNC(=O)CCC(=O)N(O)CCCCCNC(=O)CCC(=O)N(O)CCCCCN [DEFEROXAMINE HYDROCHLORIDE]	16.8 µM	50.4 µM (inactive)	14.5 µM (inactive)	29 µM (inactive)	> 100 µM (inactive)	42.4 µM (inactive)	63.5 µM (inactive)	62.5 µM (inactive)	20.6 µM (inactive)	55.7 µM (inactive)	31.6 µM (inactive)	57.5 µM (inactive)	57.5 µM (inactive)	11.2 µM (inactive)	41.9 µM (inactive)	14 µM (inactive)	> 100 µM (inactive)	12.5 µM (inactive)	37.9 µM (inactive)	55.1 µM (inactive)
